Read-outs that look alike come from different tables or passages of the source.
Key:
human IDO1 = target: T1, human IDO1 (Homo sapiens, UniProt P14902); assay: HEK293 cell-based indoleamine 2,3-dioxygenase (IDO) assay; conditions: HEK293 cells stably expressing human IDO1, 20 hours incubation; read-out: IDO1 HEK Human IC50
T1 construct: expressed in transfected cells
Experimental: Assessment of Inhibitor Activity in HEK293 Cell-Based Indoleamine 2,3-Dioxygenase (IDO) Assay.
HEK293 cells were transfected with a pCDNA-based mammalian expression vector harboring human IDO1 cDNA (NM 002164.2) by electroporation. They were cultured in medium (DMEM with 10% FBS) containing 1 mg/ml G418 for two weeks. Clones of HEK293 cells that stably expressed human IDO1 protein were selected and expanded for IDO inhibition assay.
The human IDO1/HEK293 cells were seeded at 10,000 cells per 50 μL per well with RPMI/phenol red free media contains 10% FBS in a 384-well black wall clear bottom tissue culture plate (Matrix Technologies LLC) 100 nL of certain concentration of compound was then added to each well using ECHO liquid handling systems. The cells were incubated for 20 hours in 37° C. incubator with 5% CO2.
The compound treatments were stopped by adding trichloroacetic acid (Sigma-Aldrich) to a final concentration at 0.2%. The cell plate was further incubated at 50° C. for 30 minute. The equal volume supernatant (20 μL) and 0.2% (w/v) Ehrlich reagent (4-dimethylaminobenzaldehyde, Sigma-Aldrich) in glacial acetic acid were mixed in a new clear bottom 384-well plate. This plate was then incubated at room temperature for 30 minute. The absorbance at 490 nm was measured on Envision plate reader.
Compound IC50 values were calculated using the counts of 500 nM of a reference standard treatment as one hundred percent inhibition, and counts of no compound but DMSO treatment as zero percent inhibition.

[1] = target: T2, indoleamine 2,3-dioxygenase (IDO) (Homo sapiens, UniProt P14902); assay: HeLa cell-based indoleamine 2,3-dioxygenase (IDO) assay; conditions: HeLa cells with IFNγ 25 ng/mL, 48 hour incubation, kynurenine production
T2 construct: media containing IFNγ (#285-IF/CF, R&D Systems) at a final concentration of 25 ng/mL; endogenous in cells; host or cells: HeLa (ATCC CCL-2), induced with IFN-gamma
Experimental: Assessment of Inhibitor Activity in HeLa Cell-Based Indoleamine 2,3-Dioxygenase (IDO) Assay.
HeLa (ATCCR CCL-2) cells were obtained from the ATCC® and cultured in Dulbecco's Modified Eagle Medium supplemented with 4.5 g/L glucose, […] L-glutamine and […] (#10-013-CV, Corning), 2 mM L-alanyl-L-glutamine dipeptide (#35050-061, Gibco), 100U/mL penicillin, 100 µg/mL streptomycin (#SV30010, HyClone) and 10% fetal bovine serum (#SH30071.03 HyClone). Cells were maintained in a humidified incubator at 37° C. in 5% CO2.
IDO activity was assessed as a function of kynurenine production as follows: HeLa cells were seeded in a 96-well culture plate at a density of 5,000 cells/well and allowed to equilibrate overnight. After 24 hours, the media was aspirated and replaced with media containing IFNγ (#285-IF/CF, R&D Systems) at a final concentration of 25 ng/mL. A serial dilution of each test compound was added to the cells in a total volume of 200 μL of culture medium. After a further 48 hour incubation, 170 μL of supernatant was transferred from each well to a fresh 96-well plate. 12.1 μL of 6. IN trichloroacetic acid (#T0699, Sigma-Aldrich) was added to each well and mixed, followed by incubation at 65° C. for 20 minutes to hydrolyze N-formylkynurenine, the product of indoleamine 2,3-dioxygenase, to kynurenine. The reaction mixture was then centrifuged for 10 mins at 500×g to sediment the precipitate. 100 μL of the supernatant was transferred from each well to a fresh 96-well plate. 100 μl of 2% (w/v) p-dimethylaminobenzaldehyde (#15647-7, Sigma-Aldrich) in acetic acid (#A6283, Sigma-Aldrich) was added to each well mixed and incubated at room temperature for 20 mins. Kynurenine concentrations were determined by measuring absorbance at 480 nm and calibrating against an L-kynurenine (#K8625, Sigma-Aldrich) standard curve using a SPECTRAMAX® M2e microplate reader (Molecular Devices). The percentage activity at each inhibitor concentration was determined and IC50 values assessed using nonlinear regression.

[2] = read-out: IDO Hela IC50 potency class (A < 50, B < 250, C < 2000)

T1 sequence (P14902 whole entry): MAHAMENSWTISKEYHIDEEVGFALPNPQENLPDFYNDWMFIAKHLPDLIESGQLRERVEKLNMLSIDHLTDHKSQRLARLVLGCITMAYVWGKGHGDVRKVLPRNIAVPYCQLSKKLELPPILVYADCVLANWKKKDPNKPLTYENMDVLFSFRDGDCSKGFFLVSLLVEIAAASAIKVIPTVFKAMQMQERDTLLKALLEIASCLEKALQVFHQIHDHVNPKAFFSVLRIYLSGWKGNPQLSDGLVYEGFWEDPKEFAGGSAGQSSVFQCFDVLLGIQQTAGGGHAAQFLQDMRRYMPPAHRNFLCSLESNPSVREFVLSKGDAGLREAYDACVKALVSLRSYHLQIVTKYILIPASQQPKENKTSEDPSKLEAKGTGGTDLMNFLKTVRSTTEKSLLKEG
T2 sequence (P14902 whole entry): as above

IC50 (human IDO1)	IC50 [1, 2]	IC50 ([1]; read-out: IDO Hela IC50)	Compound
499 nM			CC[C@@H](CC(=O)O)c1ccc([C@H]2CC[C@@H](c3ccccc3)CC2)c(NC(=O)Nc2ccc(C)cc2)c1 (single isomer, unassigned) [Example 1-1, 3-(4-(4-phenylcyclohexyl)-3-(3-(p-tolyl)ureido)phenyl)pentanoic acid]
1600 nM			CC[C@@H](CC(=O)O)c1ccc([C@H]2CC[C@@H](c3ccccc3)CC2)c(NC(=O)Nc2ccc(C)cc2)c1 (single isomer, unassigned) [Example 1-2, 3-(4-(4-phenylcyclohexyl)-3-(3-(p-tolyl)ureido)phenyl)pentanoic acid]
3 nM	< 50 nM		CC[C@@H](CC(=O)O)c1ccc([C@H]2CC[C@@H](c3ccccc3)CC2)c(NC(=O)Nc2ccc(C)cc2)c1 (single isomer, unassigned) [Example 1-4, 3-(4-(4-phenylcyclohexyl)-3-(3-(p-tolyl)ureido)phenyl)pentanoic acid]
1 nM	< 50 nM		CC[C@@H](CC(=O)O)c1ccc([C@H]2CC[C@@H](c3ccccc3)CC2)c(NC(=O)Nc2ccc(C)cc2)c1 (single isomer, unassigned) [Example 2-3, 3-(4-(4-phenylcyclohexyl)-3-(3-(p-tolyl)ureido)phenyl)pentanoic acid]
		110 nM	CCOc1ncc(Nc2cc([C@H](CC)CC(=O)O)ccc2-c2ncc(C)cn2)cn1 (single isomer, unassigned) [Example 69]
		230 nM	CCOc1ncc(Nc2cc([C@H](CC)CC(=O)O)ccc2-c2ccc(Cl)cc2F)cn1 (single isomer, unassigned) [Example 70]
		110 nM	CCOc1ncc(Nc2cc([C@H](CC)CC(=O)O)ccc2-c2ccc(Cl)cc2)cn1 (single isomer, unassigned) [Example 71]
		210 nM	CCOc1ncc(Nc2cc([C@H](CC)CC(=O)O)ccc2-c2ccc(Cl)c(F)c2)cn1 (single isomer, unassigned) [Example 72]
		450 nM	CCOc1cnc(-c2ccc([C@H](CC)CC(=O)O)cc2Nc2cnc(OCC)nc2)cn1 (single isomer, unassigned) [Example 74]
	250 to 2000 nM	≥ 1000 nM	CCOc1ncc(Nc2cc([C@H](CC)CC(=O)O)ccc2-c2c(C)n[nH]c2C)cn1 (single isomer, unassigned) [Example 75]
		950 nM	CCOc1ncc(Nc2cc([C@H](CC)CC(=O)O)ccc2-c2nc3ccccc3s2)cn1 (single isomer, unassigned) [Example 76]
	250 to 2000 nM	≥ 1000 nM	CCOc1ncc(Nc2cc([C@H](CC)CC(=O)O)ccc2-c2cn3ccccc3n2)cn1 (single isomer, unassigned) [Example 77]
	250 to 2000 nM	≥ 1000 nM	CCOc1ncc(Nc2cc([C@H](CC)CC(=O)O)ccc2-c2ccc3nonc3c2)cn1 (single isomer, unassigned) [Example 78]
		400 nM	CCOc1ncc(Nc2cc([C@H](CC)CC(=O)O)ccc2-c2ccn3nccc3n2)cn1 (single isomer, unassigned) [Example 79]
	250 to 2000 nM	≥ 1000 nM	CCOc1ncc(Nc2cc([C@H](CC)CC(=O)O)ccc2-c2ccc(C#N)c(OC)c2)cn1 (single isomer, unassigned) [Example 80]
		600 nM	CCOc1ncc(Nc2cc([C@H](CC)CC(=O)O)ccc2-c2c(C)nn(C)c2C)cn1 (single isomer, unassigned) [Example 81]
		110 nM	CCOc1ncc(Nc2cc([C@H](CC)CC(=O)O)ccc2-c2csc(-c3ccccc3)n2)cn1 (single isomer, unassigned) [Example 82]
		170 nM	CCOc1ncc(Nc2cc([C@H](CC)CC(=O)O)ccc2-c2ccc3c(c2)OC(F)(F)O3)cn1 (single isomer, unassigned) [Example 83]
		760 nM	CCOc1ncc(Nc2cc([C@H](CC)CC(=O)O)ccc2-c2ccnc(N3CCOCC3)n2)cn1 (single isomer, unassigned) [Example 84]
	250 to 2000 nM	≥ 1000 nM	CCOc1ncc(Nc2cc([C@H](CC)CC(=O)O)ccc2-c2ccc3cncn3c2)cn1 (single isomer, unassigned) [Example 85]
	250 to 2000 nM	≥ 1000 nM	CCOc1ncc(Nc2cc([C@H](CC)CC(=O)O)ccc2-c2ccn3ccnc3c2)cn1 (single isomer, unassigned) [Example 86]
	250 to 2000 nM	≥ 1000 nM	CCOc1ncc(Nc2cc([C@H](CC)CC(=O)O)ccc2-c2nc(-c3ccccc3)cs2)cn1 (single isomer, unassigned) [Example 87]
		400 nM	CCOc1ncc(Nc2cc([C@H](CC)CC(=O)O)ccc2-c2nnc(C)s2)cn1 (single isomer, unassigned) [Example 89]

Compound	IC50 (human IDO1)	IC50 [1, 2]	IC50 ([1]; read-out: IDO Hela IC50)
(S)-3-(2-((4-cyanophenyl)amino)- -methyl- [1,1′-biphenyl]-4-yl)-4-methoxybutanoic acid [Example 37]		250 to 2000 nM	≥ 1000 nM

Reference: patent US10959986B2, “Inhibitors of indoleamine 2,3-dioxygenase and methods of their use” (BRISTOL-MYERS SQUIBB COMPANY, priority 2018, dated 2021)
